Data as given in patent US11231416B2, “Virus-like particle (VLP) based small molecule-protein interaction trap” (VIB VZW, priority 2015, dated 2022).

How the values were obtained:
Experiment in all cases: Viral trapping in VLPs, MS analysis
Format in all cases: binding
[1] = target: T1, REEP6 (Homo sapiens, UniProt Q96HR9)
T1 construct: endogenous in cells; host or cells: HEK293T
Experimental: (§1) For mass spectrometry, 10^7 HEK293T cells were seeded in five flasks (75 cm^2) and transfected the next day with a total of 15 μg DNA per flask using polyethylene imine reagent. The following DNA quantities were used per flask: 7.5 μg of GAG-eDHFR, 5.4 μg of mock vector and 2.1 μg of a 50/50 mix of pMD2.G and pcDNA3-FLAG-VSV-G. The small molecule fusions were added immediately after transfection to the producing cells at a concentration of 1 μM. The same dilution of dimethyl sulfoxide (DMSO) was added in control experiments to control the effect of this chemical on the cells. The cellular supernatant was harvested after 32 hours and was centrifuged for 3 minutes at 450×g to remove cellular debris. The cleared supernatant was then filtered using 0.45 μm filters (Millipore). A total of 100 μl MyOne™ Streptavidin T1 beads (Life Technologies) pre-loaded with 10 μg ANTI-FLAG® BioM2-Biotin antibody (Sigma-Aldrich®) was used to bind the tagged particles. Particles were allowed to bind for 2 hours by end-over-end rotation. The total supernatant was processed in three consecutive binding steps. Bead-particle complexes were washed once with washing buffer (TWB: 20 mM Tris-HCl pH 7.5, 150 mM NaCl) and were then eluted with FLAG peptide (200 μg/ml in TWB) and lysed by addition of SDS to a final concentration of 0.1%. After 5 minutes, SDS was removed using HiPPR Detergent Removal Spin Columns (Pierce, Thermo Scientific) followed by boiling and overnight digestion with 0.5 μg sequence-grade trypsin (Promega). After acidification (0.1% TFA final), the peptides were separated by nano-LC and directly analyzed with a Q Exactive instrument (Thermo Scientific).
(§2) For tamoxifen, four biological repeats were performed where the cells were treated with MTX-PEG6-tamoxifen after transfection. The obtained protein lists after viral trapping and MS analysis were challenged with protein lists coming from the four DMSO controls, the 19 control experiments and the lists obtained for the MTX-PEG6-simvastatin and MTX-PEG6-reversine (see below) for a total of 30 samples.

[2] = target: T2, SSR3 (Homo sapiens, UniProt Q9UNL2); settings: all proteins (incl. low confidence identifications)
T2 construct: endogenous in cells; host or cells: HEK293T
Experimental: as §1, §2

[3] = target: T3, TAOK2 (Homo sapiens, UniProt Q9UL54); settings: all proteins (incl. low confidence identifications)
T3 construct: endogenous in cells; host or cells: HEK293T
Experimental: as §1, §2

[4] = target: T4, SSNA1 (Homo sapiens, UniProt O43805)
T4 construct: endogenous in cells; host or cells: HEK293T
T4 sequence (O43805 whole entry): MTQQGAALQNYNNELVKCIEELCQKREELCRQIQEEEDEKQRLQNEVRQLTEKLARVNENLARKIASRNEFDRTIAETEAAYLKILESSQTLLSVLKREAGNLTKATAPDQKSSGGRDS
Experimental: as §1, §2

[5] = target: T5, UBQLN2 (Homo sapiens, UniProt Q9UHD9)
T5 construct: endogenous in cells; host or cells: HEK293T
T5 sequence (Q9UHD9 whole entry): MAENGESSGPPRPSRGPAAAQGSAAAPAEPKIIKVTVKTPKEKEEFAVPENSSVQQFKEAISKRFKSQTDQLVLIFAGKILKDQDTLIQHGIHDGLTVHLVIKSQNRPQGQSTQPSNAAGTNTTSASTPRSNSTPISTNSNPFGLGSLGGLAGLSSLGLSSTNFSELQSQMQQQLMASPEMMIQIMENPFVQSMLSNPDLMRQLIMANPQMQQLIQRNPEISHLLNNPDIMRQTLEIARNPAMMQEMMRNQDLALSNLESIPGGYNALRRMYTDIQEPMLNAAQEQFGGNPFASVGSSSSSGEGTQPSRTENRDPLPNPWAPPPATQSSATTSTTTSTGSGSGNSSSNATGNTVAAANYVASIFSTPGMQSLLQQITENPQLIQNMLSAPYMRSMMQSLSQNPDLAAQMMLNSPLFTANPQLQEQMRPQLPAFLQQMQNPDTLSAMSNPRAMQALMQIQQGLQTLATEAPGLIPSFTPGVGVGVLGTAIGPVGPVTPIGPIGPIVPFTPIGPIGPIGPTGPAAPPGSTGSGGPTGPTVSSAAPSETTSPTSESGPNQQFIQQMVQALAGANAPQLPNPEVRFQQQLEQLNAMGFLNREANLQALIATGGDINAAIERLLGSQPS
Experimental: as §1, §2

[6] = target: T6, TBL2 (Homo sapiens, UniProt Q9Y4P3)
T6 construct: endogenous in cells; host or cells: HEK293T
T6 sequence (Q9Y4P3 whole entry): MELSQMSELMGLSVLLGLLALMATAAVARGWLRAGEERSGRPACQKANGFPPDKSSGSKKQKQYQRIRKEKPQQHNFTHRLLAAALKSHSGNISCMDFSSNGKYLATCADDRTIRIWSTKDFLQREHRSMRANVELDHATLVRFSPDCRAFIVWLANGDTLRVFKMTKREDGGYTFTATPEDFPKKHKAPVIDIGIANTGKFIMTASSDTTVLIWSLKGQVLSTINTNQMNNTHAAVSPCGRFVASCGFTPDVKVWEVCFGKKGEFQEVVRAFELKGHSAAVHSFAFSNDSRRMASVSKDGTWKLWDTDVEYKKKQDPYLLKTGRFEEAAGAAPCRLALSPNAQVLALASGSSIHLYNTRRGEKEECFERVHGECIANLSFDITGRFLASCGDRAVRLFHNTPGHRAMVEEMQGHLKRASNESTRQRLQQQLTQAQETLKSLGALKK
Experimental: as §1, §2

[7] = target: T7, NCS1 (Homo sapiens, UniProt P62166); settings: all proteins (incl. low confidence identifications)
T7 construct: endogenous in cells; host or cells: HEK293T
Experimental: as §1, §2

[8] = target: T8, CALU (Homo sapiens, UniProt O43852); settings: all proteins (incl. low confidence identifications)
T8 construct: endogenous in cells; host or cells: HEK293T
Experimental: as §1, §2

[9] = target: T9, WDR36 (Homo sapiens, UniProt Q8NI36); settings: all proteins (incl. low confidence identifications)
T9 construct: endogenous in cells; host or cells: HEK293T
Experimental: as §1, §2

[10] = target: T10, SEC61G (Homo sapiens, UniProt P60059)
T10 construct: endogenous in cells; host or cells: HEK293T
Experimental: as §1, §2

[11] = target: T11, SEMA4G (Homo sapiens, UniProt Q9NTN9); settings: all proteins (incl. low confidence identifications)
T11 construct: endogenous in cells; host or cells: HEK293T
Experimental: as §1, §2

[12] = target: T12, ITPRIPL1 (Homo sapiens, UniProt Q6GPH6); settings: all proteins (incl. low confidence identifications)
T12 construct: endogenous in cells; host or cells: HEK293T
Experimental: as §1, §2

[13] = target: T13, ATL2 (Homo sapiens, UniProt Q8NHH9); settings: all proteins (incl. low confidence identifications)
T13 construct: endogenous in cells; host or cells: HEK293T
Experimental: as §1, §2

[14] = target: T14, TMPRSS13 (Homo sapiens, UniProt Q9BYE2); settings: all proteins (incl. low confidence identifications)
T14 construct: endogenous in cells; host or cells: HEK293T
Experimental: as §1, §2

[15] = target: T15, ZMPSTE24 (Homo sapiens, UniProt O75844); settings: all proteins (incl. low confidence identifications)
T15 construct: endogenous in cells; host or cells: HEK293T
Experimental: as §1, §2

[16] = target: T16, ESYT1 (Homo sapiens, UniProt Q9BSJ8)
T16 construct: endogenous in cells; host or cells: HEK293T
T16 sequence (Q9BSJ8 whole entry): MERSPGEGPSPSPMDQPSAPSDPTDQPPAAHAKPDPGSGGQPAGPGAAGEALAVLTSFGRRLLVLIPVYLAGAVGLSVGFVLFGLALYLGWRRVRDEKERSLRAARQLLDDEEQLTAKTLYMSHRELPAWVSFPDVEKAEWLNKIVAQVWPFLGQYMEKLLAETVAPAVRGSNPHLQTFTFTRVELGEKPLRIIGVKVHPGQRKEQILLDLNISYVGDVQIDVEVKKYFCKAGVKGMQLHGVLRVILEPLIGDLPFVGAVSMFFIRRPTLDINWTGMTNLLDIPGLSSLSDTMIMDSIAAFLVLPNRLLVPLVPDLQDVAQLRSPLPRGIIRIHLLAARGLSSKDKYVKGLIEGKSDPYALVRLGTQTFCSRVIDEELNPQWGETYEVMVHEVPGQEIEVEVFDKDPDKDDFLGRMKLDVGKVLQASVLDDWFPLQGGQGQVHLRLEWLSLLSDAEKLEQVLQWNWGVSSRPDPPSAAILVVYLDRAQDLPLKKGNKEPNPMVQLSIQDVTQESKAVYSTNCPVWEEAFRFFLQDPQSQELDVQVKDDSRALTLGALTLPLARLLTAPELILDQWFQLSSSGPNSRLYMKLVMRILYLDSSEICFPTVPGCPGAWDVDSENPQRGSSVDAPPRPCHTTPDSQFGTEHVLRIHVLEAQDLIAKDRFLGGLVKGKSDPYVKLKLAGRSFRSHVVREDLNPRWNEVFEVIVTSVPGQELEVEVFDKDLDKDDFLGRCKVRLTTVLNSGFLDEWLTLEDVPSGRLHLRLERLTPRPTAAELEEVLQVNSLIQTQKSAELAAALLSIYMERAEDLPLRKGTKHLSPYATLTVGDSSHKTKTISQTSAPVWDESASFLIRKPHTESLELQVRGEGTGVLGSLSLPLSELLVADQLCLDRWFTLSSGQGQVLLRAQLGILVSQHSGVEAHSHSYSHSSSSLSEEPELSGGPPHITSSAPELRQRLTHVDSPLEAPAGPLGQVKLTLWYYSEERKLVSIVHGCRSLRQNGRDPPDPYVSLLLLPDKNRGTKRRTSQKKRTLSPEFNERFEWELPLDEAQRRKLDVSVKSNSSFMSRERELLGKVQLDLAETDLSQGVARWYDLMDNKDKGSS
Experimental: as §1, §2

[17] = target: T17, REEP4 (Homo sapiens, UniProt Q9H6H4)
T17 construct: endogenous in cells; host or cells: HEK293T
T17 sequence (Q9H6H4 whole entry): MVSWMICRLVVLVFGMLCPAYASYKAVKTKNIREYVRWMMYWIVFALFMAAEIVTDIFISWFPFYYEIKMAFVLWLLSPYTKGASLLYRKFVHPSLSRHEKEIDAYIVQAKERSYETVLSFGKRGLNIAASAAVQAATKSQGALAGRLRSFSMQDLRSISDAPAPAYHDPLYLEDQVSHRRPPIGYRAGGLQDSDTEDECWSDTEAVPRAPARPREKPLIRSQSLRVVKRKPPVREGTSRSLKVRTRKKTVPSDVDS
Experimental: as §1, §2

[18] = target: T18, MDH2 (Homo sapiens, UniProt P40926)
T18 construct: endogenous in cells; host or cells: HEK293T
T18 sequence (P40926 25-338): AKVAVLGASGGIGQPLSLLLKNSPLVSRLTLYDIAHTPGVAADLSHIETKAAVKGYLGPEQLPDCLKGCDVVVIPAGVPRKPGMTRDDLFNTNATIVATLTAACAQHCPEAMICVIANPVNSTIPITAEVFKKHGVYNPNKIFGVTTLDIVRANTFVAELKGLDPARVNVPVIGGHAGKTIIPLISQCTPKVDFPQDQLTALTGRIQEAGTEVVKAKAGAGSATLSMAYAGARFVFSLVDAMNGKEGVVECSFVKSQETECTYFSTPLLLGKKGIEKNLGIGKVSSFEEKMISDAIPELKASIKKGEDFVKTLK
Experimental: as §1, §2

[19] = target: T19, ECE1 (Homo sapiens, UniProt P42892)
T19 construct: endogenous in cells; host or cells: HEK293T
T19 sequence (P42892 whole entry): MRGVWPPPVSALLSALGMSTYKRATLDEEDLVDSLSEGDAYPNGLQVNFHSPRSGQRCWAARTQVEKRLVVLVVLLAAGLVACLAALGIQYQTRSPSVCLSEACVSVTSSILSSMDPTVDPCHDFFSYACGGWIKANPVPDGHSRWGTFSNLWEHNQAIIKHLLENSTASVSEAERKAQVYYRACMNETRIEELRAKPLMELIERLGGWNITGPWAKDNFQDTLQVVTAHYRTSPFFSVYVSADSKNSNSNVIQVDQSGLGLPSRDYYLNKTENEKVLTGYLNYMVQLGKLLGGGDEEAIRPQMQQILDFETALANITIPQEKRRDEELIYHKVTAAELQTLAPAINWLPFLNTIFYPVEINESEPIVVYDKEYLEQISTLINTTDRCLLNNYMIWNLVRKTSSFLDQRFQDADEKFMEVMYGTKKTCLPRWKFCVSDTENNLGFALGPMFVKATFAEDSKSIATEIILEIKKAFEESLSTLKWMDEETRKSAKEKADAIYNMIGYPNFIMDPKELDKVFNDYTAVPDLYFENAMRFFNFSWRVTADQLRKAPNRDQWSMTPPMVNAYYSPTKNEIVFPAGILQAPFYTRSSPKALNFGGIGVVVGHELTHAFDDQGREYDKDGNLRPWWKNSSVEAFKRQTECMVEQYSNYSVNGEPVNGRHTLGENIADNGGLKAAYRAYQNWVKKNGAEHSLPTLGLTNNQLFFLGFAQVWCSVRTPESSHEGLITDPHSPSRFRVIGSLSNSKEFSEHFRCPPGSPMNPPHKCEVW
Experimental: as §1, §2

[20] = target: T20, DCAKD (Homo sapiens, UniProt Q8WVC6); settings: all proteins (incl. low confidence identifications)
T20 construct: endogenous in cells; host or cells: HEK293T
Experimental: as §1, §2

[21] = target: T21, ILVBL (Homo sapiens, UniProt A1L0T0); settings: all proteins (incl. low confidence identifications)
T21 construct: endogenous in cells; host or cells: HEK293T
Experimental: as §1, §2

[22] = target: T22, RTN4 (Homo sapiens, UniProt Q9NQC3)
T22 construct: endogenous in cells; host or cells: HEK293T
T22 sequence (Q9NQC3 whole entry): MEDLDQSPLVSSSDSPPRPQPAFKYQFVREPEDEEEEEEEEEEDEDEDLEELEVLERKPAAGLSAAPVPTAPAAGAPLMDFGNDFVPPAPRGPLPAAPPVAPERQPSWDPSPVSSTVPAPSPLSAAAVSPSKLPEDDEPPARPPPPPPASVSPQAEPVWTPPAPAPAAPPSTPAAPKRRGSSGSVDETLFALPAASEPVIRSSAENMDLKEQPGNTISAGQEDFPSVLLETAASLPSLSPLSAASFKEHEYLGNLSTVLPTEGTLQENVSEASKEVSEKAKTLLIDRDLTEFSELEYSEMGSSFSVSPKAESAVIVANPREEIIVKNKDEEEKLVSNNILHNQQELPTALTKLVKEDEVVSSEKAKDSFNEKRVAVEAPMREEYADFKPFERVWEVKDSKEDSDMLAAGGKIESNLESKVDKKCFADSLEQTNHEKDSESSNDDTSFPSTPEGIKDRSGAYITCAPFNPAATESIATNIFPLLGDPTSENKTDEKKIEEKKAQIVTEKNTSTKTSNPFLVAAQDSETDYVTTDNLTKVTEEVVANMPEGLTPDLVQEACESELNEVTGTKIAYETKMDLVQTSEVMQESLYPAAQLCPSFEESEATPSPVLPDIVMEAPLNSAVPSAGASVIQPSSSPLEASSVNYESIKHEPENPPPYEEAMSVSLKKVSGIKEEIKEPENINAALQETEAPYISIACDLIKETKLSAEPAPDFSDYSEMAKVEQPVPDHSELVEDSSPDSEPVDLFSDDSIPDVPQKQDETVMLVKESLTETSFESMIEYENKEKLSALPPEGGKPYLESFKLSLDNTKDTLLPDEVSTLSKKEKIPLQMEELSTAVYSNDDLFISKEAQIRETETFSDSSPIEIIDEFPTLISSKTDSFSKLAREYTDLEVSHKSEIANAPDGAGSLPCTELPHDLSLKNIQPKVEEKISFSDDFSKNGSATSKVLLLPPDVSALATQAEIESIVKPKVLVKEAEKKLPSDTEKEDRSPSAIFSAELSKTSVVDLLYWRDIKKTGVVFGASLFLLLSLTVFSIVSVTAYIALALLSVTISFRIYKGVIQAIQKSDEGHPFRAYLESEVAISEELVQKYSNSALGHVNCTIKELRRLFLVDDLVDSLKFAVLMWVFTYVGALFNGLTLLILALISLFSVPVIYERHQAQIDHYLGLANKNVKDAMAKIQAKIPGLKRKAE
Experimental: as §1, §2

[23] = target: T23, MINK1 (Homo sapiens, UniProt Q8N4C8); settings: all proteins (incl. low confidence identifications)
T23 construct: endogenous in cells; host or cells: HEK293T
Experimental: as §1, §2

[24] = target: T24, CYP51A1 (Homo sapiens, UniProt Q16850); settings: all proteins (incl. low confidence identifications)
T24 construct: endogenous in cells; host or cells: HEK293T
Experimental: as §1, §2

[25] = all proteins (incl. low confidence identifications)
[26] = proteins identified with >1 peptide (high confidence)

Measured: Recurrence (x/4)

T1 sequence (Q96HR9 1-184 isoform Q96HR9-2): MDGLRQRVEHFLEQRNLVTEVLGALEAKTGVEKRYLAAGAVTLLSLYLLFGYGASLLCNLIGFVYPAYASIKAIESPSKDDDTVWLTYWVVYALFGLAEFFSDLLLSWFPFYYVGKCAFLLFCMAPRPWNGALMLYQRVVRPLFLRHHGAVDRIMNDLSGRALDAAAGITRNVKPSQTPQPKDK

CCC(=C(c1ccccc1)c1ccc(OCCN(C)Cc2cn(CCOCCOCCOCCOCCOCCNC(=O)CCC(NC(=O)c3ccc(N(C)Cc4cnc5nc(N)nc(N)c5n4)cc3)C(=O)O)nn2)cc1)c1ccccc1 (stereo not shown) [MTX-PEG6-tamoxifen]
4 x/4: [1]; [25] | [4]; [25]
3 x/4: [1]; [26] | [6]; [25]
1 x/4: [2] | [3] | [5]; [25] | [5]; [26] | [7] | [8] | [9] | [10]; [26] | [11] | [12] | [13] | [14] | [15] | [16]; [25] | [16]; [26] | [18]; [25] | [18]; [26] | [19]; [25] | [19]; [26] | [21] | [22]; [25] | [22]; [26] | [23] | [24]
2 x/4: [4]; [26] | [6]; [26] | [10]; [25] | [17]; [25] | [17]; [26] | [20]
